Results published in PubChem BioAssay (NCI).
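Results reflect a 48-hour exposure of cells in 96-well plates to compound at five concentrations. Here, GI50 denotes the concentration required for 50% inhibition of growth. Definition used: TGI = concentration required for complete inhibition of growth.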

Assays:
Assay in all cases: NCI-60 cell line screen, 48 h
CAKI-1 renal = tested on: CAKI-1 renal
HCT-116 colon = tested on: HCT-116 colon
OVCAR-4 ovarian = tested on: OVCAR-4 ovarian
OVCAR-5 ovarian = tested on: OVCAR-5 ovarian
SF-295 CNS = tested on: SF-295 CNS
SK-MEL-5 melanoma = tested on: SK-MEL-5 melanoma
SNB-75 CNS = tested on: SNB-75 CNS
SW-620 colon = tested on: SW-620 colon
UACC-257 melanoma = tested on: UACC-257 melanoma
M14 melanoma = tested on: M14 melanoma
T-47D breast = tested on: T-47D breast

| SMILES | TGI (CAKI-1 renal) [µM] | TGI (HCT-116 colon) [µM] | TGI (OVCAR-4 ovarian) [µM] | TGI (OVCAR-5 ovarian) [µM] | TGI (SF-295 CNS) [µM] | TGI (SK-MEL-5 melanoma) [µM] | TGI (SNB-75 CNS) [µM] | TGI (SW-620 colon) [µM] | TGI (UACC-257 melanoma) [µM] | TGI (M14 melanoma) [µM] | TGI (T-47D breast) [µM] | GI50 (CAKI-1 renal) [µM] | GI50 (OVCAR-4 ovarian) [µM] | GI50 (OVCAR-5 ovarian) [µM] | GI50 (SF-295 CNS) [µM] | GI50 (SK-MEL-5 melanoma) [µM] | GI50 (SNB-75 CNS) [µM] | GI50 (SW-620 colon) [µM] | GI50 (T-47D breast) [µM] | GI50 (UACC-257 melanoma) [µM] |
| --- | --- | --- | --- | --- | --- | --- | --- | --- | --- | --- | --- | --- | --- | --- | --- | --- | --- | --- | --- | --- |
| O=C(O)/C=C/c1cnc[nH]1 | > 500 | > 500 | > 500 | > 500 | > 500 | > 232 | > 500 | > 500 | > 500 | – | – | – | – | – | – | – | – | – | – | – |
| O=C(O)c1cncc(C(=O)O)c1 | > 100 | > 100 | > 100 | > 100 | > 100 | > 100 | > 100 | > 100 | > 100 | > 100 | > 100 | – | – | – | – | – | – | – | – | – |
| CC(=O)[O-].[Ni].c1ccc(/C(=N\Nc2ccccn2)c2ccccn2)cc1 | 39.3 | 18 | > 59.7 | 47.3 | 26.8 | 18.3 | 46.1 | 32.2 | 23.2 | 17.8 | 15.6 | – | – | – | – | – | – | – | – | – |
| COc1ccc2c[n+](C)c3c4cc(OC)c(OC)cc4ccc3c2c1 | > 100 | 16.8 | 26.4 | 34.4 | 34.8 | 29.3 | 15.7 | 16.4 | 57.6 | 32.1 | 18.9 | – | – | – | – | – | – | – | – | – |
| NC(CCCNc1cccc(O)c1)C(=O)O (centres undefined) | > 100 | > 100 | > 100 | > 100 | > 100 | > 100 | > 100 | > 100 | > 100 | > 100 | – | – | – | – | – | – | – | – | – | – |
| CCSc1nc(N2CCCCC2)c2cn[nH]c2n1 | 59.7 | – | > 100 | > 100 | > 100 | 32.8 | > 100 | > 100 | > 100 | – | 62.4 | 19.8 | 88.3 | 88.7 | 48.2 | 16.6 | 74.9 | 40.1 | 16 | 58.7 |
| Cn1c(=O)c2c(ncn2CCSS(=O)(=O)O)n(C)c1=O | > 100 | > 100 | > 100 | > 100 | > 100 | > 100 | > 100 | > 100 | > 100 | > 100 | > 100 | – | – | – | – | – | – | – | – | – |
| COc1cccc(C2C(C(=O)O)=C(CO)Oc3cc4c(cc32)OCO4)c1 (centres undefined) | > 100 | – | – | – | > 100 | > 100 | > 100 | > 100 | – | > 100 | – | – | – | – | – | – | – | – | – | – |
| CC(=O)[O-].CC(=O)[O-].O=C(N/N=C/c1cc(Cl)cc(Cl)c1[OH2+])c1ccncc1.[Zn+2] | – | > 100 | – | > 100 | > 100 | > 100 | > 100 | > 100 | > 100 | > 100 | – | – | – | – | – | – | – | – | – | – |
| COc1ccc2c(c1)O[C@H]1c3ccc(O)cc3OC[C@@H]21 | > 100 | > 100 | > 100 | > 100 | > 100 | 32 | 47.1 | > 100 | 52.5 | 47.7 | – | – | – | – | – | – | – | – | – | – |
| CC(=O)NC(CCCCNC(=O)OC(C)(C)C)C(=O)O (centres undefined) | > 100 | > 100 | > 100 | > 100 | > 100 | > 100 | – | > 100 | > 100 | > 100 | > 100 | – | – | – | – | – | – | – | – | – |
| C=C(CN(C)C)C(=O)c1cc(C)ccc1C | 11.8 | 17.4 | 39.4 | 31.2 | 34.1 | 27.2 | 43.4 | 5.96 | 26 | 7.21 | 15.7 | – | – | – | – | – | – | – | – | – |
| O=C(N1CCC(CN=c2cc3n(-c4ccc(Cl)cc4)c4ccccc4nc-3cc2Nc2ccc(Cl)cc2)CC1)N1CC1 | 3.88 | – | – | 3.39 | – | 2.81 | – | 2.05 | 1.89 | – | 5.91 | 1.38 | – | 1.85 | – | 1.49 | – | 0.709 | 2.41 | 0.605 |
| O=c1[nH]cc(N(CCCl)CCCl)c(=O)[nH]1 | 56.7 | 179 | 199 | 186 | 246 | 115 | 162 | 249 | 159 | 89.9 | 183 | – | – | – | – | – | – | – | – | – |
| O=NNc1cnccn1 | > 1250 | > 1250 | > 1250 | > 1250 | > 1250 | > 1250 | > 1250 | > 1250 | > 1250 | > 1250 | > 1250 | – | – | – | – | – | – | – | – | – |
| c1ccc(SC(Sc2ccccc2)c2ccc3c(c2)OCO3)cc1 | > 100 | > 100 | > 100 | > 100 | > 100 | > 100 | – | > 100 | > 100 | > 100 | > 100 | – | – | – | – | – | – | – | – | – |
| CCOC(=O)C1(C(=O)OCC)CSC1 | – | > 100 | > 100 | – | > 100 | > 100 | > 100 | > 100 | > 100 | > 100 | > 100 | – | – | – | – | – | – | – | – | – |
